The subject of assay [1] is cultured nerve cells (cerebral cortex). As to the kind of experiment: cells. It is filed as cell-based, Wistar rat. The settings on record: Rattus norvegicus, Cerebral cortex neuron; 10 mM glutamate, 24 hours at 37° C., LDH leakage; read-out: ED50 (the source's name).
In assay [2] the test system is nerve cells in the CAl region of the hippocampus. As to the kind of experiment: Protective action from delayed neuronal death (bilateral carotid ligation ischemia, residual hippocampal nerve cells). Format: in vivo, mongolian jerbils. The settings on record: for inhibition of defluxion of brain nerve cells caused by ischemia: conclusion from Table 2. As to the method:
Those compounds that provide protection from and suppress delayed neuronal death described in Example 18 are considered to be promising as preventive and therapeutic agents for ischemic brain disorders, brain nerve cell disorders and dementia, which are problems that the present invention is attempting to solve. The pharmacological activity of the compounds of the present invention was evaluated in the manner below using jerbils for the animal model.
A midline incision was made in mongolian having body weights of 50-70 g under ether anesthesia. Blood flow through the carotid arteries on both sides was interrupted to create an ischemic state by ligating the vessels for 5 minutes. The test compound was administered subcutaneously either 30 minutes or 1 hour prior to ligation ischemia, and the rectal temperature of the animals was controlled to 37±2° C. using a heating pad or heater starting 5 minutes before to 30 minutes after ligation ischemia. 1 week after ligation, 4% neutral buffered formalin was perfused from the heart throughout the body followed by extraction of the brain. After post-fixing the extracted brain in the same solution, the tissue was prepared into sections after embedding in paraffin. The sections were stained with hematoxylin and eosin, and the number of nerve cells in the CAl region of the hippocampus over a width of 1 mm to the left and right was counted. The total number of nerve cells on the right and left sides was then used for evaluation.

Consider 6 compounds from US5972953A, “Brain cell protective agent” (priority 1993, dated 1999).

`CN(C(=O)/C=C/c1cccc(C(F)(F)F)c1)[C@@H]1CC[C@@]2(O)[C@H]3Cc4ccc(O)c5c4[C@@]2(CCN3CC2CC2)[C@H]1O5` [Compound 42, 17-cyclopropylmethyl-3,14β-dihydroxy-4,5α-epoxy-6β-(N-methyl-3-trifluoromethylcinnamamido)morphinan]: the EC50 in assay [1] is 1.8 µM. For the same compound, in assay [2], the “inhibition of defluxion of brain nerve cells caused by ischemia” value (“inhibition” below) is given as “significantly inhibited defluxion of brain nerve cells caused by ischemia”. In the case of `CC(C)CN(C(=O)Cc1ccc(Cl)c(Cl)c1)[C@H]1CC[C@@]2(O)[C@H]3Cc4ccc(O)c5c4[C@@]2(CCN3CC2CC2)[C@H]1O5` [Compound 35, 17-cyclopropylmethyl-3,14β-dihydroxy-4,5α-epoxy-6α-(N-isobutyl-3,4-dichlorophenylacetoamido)morphinan], in assay [2] (3 mg/kg s.c., 30 minutes before ischemia, 1 week after 5 min ligation), the “No. of Residual Nerve Cells” value came out at 203.1 ± 40.1. Further, the “inhibition” value in assay [2] was “significantly inhibited defluxion of brain nerve cells caused by ischemia”. Consider `CN(C(=O)/C=C/c1cccc([N+](=O)[O-])c1)[C@@H]1CC[C@@]2(O)[C@H]3Cc4ccc(O)c5c4[C@@]2(CCN3CC2CC2)[C@H]1O5` [Compound 78, 17-cyclopropylmethyl-3,14β-dihydroxy-4,5α-epoxy-6β-(N-methyl-3-nitrocinnamamido)morphinan], for which the “inhibition” value in assay [2] is reported as “significantly inhibited defluxion of brain nerve cells caused by ischemia”. On the same count and under the same terms, next, `CN(C(=O)CCCCCc1ccccc1)[C@H]1CC[C@@]2(O)[C@H]3Cc4ccc(O)c5c4[C@@]2(CCN3CC2CC2)[C@H]1O5` [Compound 34, 17-cyclopropylmethyl-3,14β-dihydroxy-4,5α-epoxy-6α-(N-methyl-6-phenylhexanoamido)morphinan]: “significantly inhibited defluxion of brain nerve cells caused by ischemia”. As to `Cc1cccc(/C=C/C(=O)N(C)[C@@H]2CC[C@@]3(O)[C@H]4Cc5ccc(O)c6c5[C@@]3(CCN4CC3CC3)[C@H]2O6)c1` [Compound 46, 17-cyclopropylmethyl-3,14β-dihydroxy-4,5α-epoxy-6β-(N-methyl-3-methylcinnamamido) morphinan], in assay [1], the EC50 is 4.42 µM. In addition, the “inhibition” value in assay [2] was “significantly inhibited defluxion of brain nerve cells caused by ischemia”. Regarding `CN(C(=O)/C=C/c1ccccc1C(F)(F)F)[C@@H]1CC[C@@]2(O)[C@H]3Cc4ccc(O)c5c4[C@@]2(CCN3CC2CC2)[C@H]1O5` [Compound 55, 17-cyclopropylmethyl-3,14β-dihydroxy-4,5α-epoxy-6β-(N-methyl-2-trifluoromethylcinnamamido)morphinan], the EC50 in assay [1] was determined as 1.73 µM.
